Assay results taken from patent US20260001871A1, “TRIAZOLE DERIVATIVES AS MODULATORS OF MAS-RELATED G-PROTEIN RECEPTOR D” (ESCIENT PHARMACEUTICALS, INC., priority 2022, published 2026).
pIC50: −log10 of the molar value.

Biological target: human MRGPRD (Homo sapiens, UniProt Q8TDS7)
Experiment: MRGPRD antagonist activity, IP-One HTRF assay in CHO cells stably expressing human MRGPRD (versus 100 μM β-Alanine agonist)
Type: cell-based
Summary of the method: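 IP-1 HTRF read-out, with IC50 from HTRF ratio curves and percent antagonism relative to maximal efficacy (mean, SEM). Antagonists and agonist were co-incubated 1 h at 37 °C plus 1 h at room temperature on overnight-plated MRGPRD-CHO cells in LiCl-containing Tris buffer, pH 8.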

human MRGPRD, sequence (Q8TDS7 whole entry): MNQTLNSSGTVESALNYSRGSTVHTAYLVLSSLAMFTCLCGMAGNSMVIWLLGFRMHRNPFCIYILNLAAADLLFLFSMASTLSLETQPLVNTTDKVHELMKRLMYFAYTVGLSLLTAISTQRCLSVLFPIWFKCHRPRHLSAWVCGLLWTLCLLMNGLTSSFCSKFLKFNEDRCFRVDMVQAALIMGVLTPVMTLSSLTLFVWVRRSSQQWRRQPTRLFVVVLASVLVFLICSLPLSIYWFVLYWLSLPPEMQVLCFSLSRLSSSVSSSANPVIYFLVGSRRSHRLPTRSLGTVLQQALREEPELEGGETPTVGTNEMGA

Row | pIC50 | Compound
1 | < 5.52 | O=C(N[C@H]1CCC[C@@H]1O)c1nnn(-c2ccc(-c3ccccc3)cc2)c1C1CC1 [Compound 14-82]
2 | 6.00 to 6.30 | Cc1nn(C)c(CO)c1-c1ccc(-n2nnc(C(=O)Nc3ccncc3)c2C2CC2)cc1 [Compound 7-133]
3 | 6.30 to 7.00 | O=C(Nc1ccncc1)c1nnn(-c2ccc(-c3ccc(C(F)(F)F)cc3)cc2)c1C1CC1 [Compound 7-66]
4 | 5.52 to 6.00 | O=C(Nc1ccncc1)c1nnn(-c2ccc(-c3ccccc3OC(F)(F)F)cc2)c1C1CC1 [Compound 7-186]
5 | 5.52 to 6.00 | O=C(Nc1ccncc1)c1nnn(-c2ccc(-c3nccs3)cc2)c1C1CC1 [Compound 7-177]
6 | 6.30 to 7.00 | Cn1ccc(-c2ccc(-n3nnc(C(=O)Nc4ccncc4)c3C3CC3)cc2)c1 [Compound 7-55]
7 | 5.52 to 6.00 | Cc1ccc(-c2ccc(-n3nnc(C(=O)Nc4ccncc4)c3C3CC3)cc2)s1 [Compound 7-182]
8 | 6.30 to 7.00 | CCc1ccc(-c2ccc(-n3nnc(C(=O)Nc4ccnc(C)c4)c3C3CC3)cc2)cn1 [Compound 15-23]
9 | < 5.52 | Cc1nn(C)c(C)c1-c1ccc(-n2nnc(C(=O)Nc3ccncc3)c2C2CC2)cc1OC(F)(F)F [Compound 7-335]
10 | 6.30 to 7.00 | CCn1cc(CNC(=O)c2nnn(-c3ccc(-c4ccc(CC#N)cc4)cc3)c2C2CC2)cn1 [Compound 17-5]
11 | 6.00 to 6.30 | Cc1cc(NC(=O)c2nnn(C3CC=C(c4c(C)nn5ccccc45)CC3)c2C2CC2)ccn1 (centres unmarked) [Compound 12-5]
12 | 6.00 to 6.30 | CCc1cc(-n2nnc(C(=O)Nc3ccncc3)c2C2CC2)ccc1C [Compound 5-4, 5-cyclopropyl-1-(3-ethyl-4-methylphenyl)-N-(pyridin-4-yl)-1H-1,2,3-triazole-4-carboxamide]
13 | < 5.52 | CC(C)C(NC(=O)c1nnn(-c2ccc(-c3ccccc3)cc2)c1C1CC1)c1cn[nH]c1 (centres unmarked) [Compound 14-81]
14 | 5.52 to 6.00 | Cn1ncc2c(NC(=O)c3nnn(-c4ccc(-c5ccccc5)cc4)c3C3CC3)cccc21 [Compound 14-63]
15 | 6.30 to 7.00 | N#Cc1ccc(-c2ccc(-n3nnc(C(=O)NC4(c5cncc(Cl)c5)CC4)c3C3CC3)cc2)cc1 [Compound 18-1]
16 | 5.52 to 6.00 | O=C(Nc1ccncc1)c1nnn(-c2cccc(O)c2)c1C1CC1 [Compound 4-7]
17 | 6.30 to 7.00 | CCn1nc(C)c(-c2ccc(-n3nnc(C(=O)NCc4cnccc4C)c3C3CC3)cc2)c1C [Compound 9-23]
18 | 5.52 to 6.00 | Cc1ccc(-n2nnc(C(=O)Nc3ccncc3)c2C2CC2)c(C)c1 [Compound 2-8]
19 | 6.30 to 7.00 | CCn1cc(-c2ccc(-n3nnc(C(=O)Nc4ccncc4)c3C3CC3)cc2)cn1 [Compound 7-97]
20 | 6.30 to 7.00 | Cc1cc(-c2ccc(C#N)cc2)ccc1-n1nnc(C(=O)Nc2ccncc2)c1C1CC1 [Compound 7-230]
21 | 6.00 to 6.30 | O=C(Nc1ccncc1)c1nnn(-c2cccc(-c3ccccc3O)c2)c1C1CC1 [Compound 7-276]
22 | 5.52 to 6.00 | Cn1c(CNC(=O)c2nnn(-c3ccc(-c4ccc(CC#N)cc4)cc3)c2C2CC2)nc2ccccc21 [Compound 15-6]
23 | 6.00 to 6.30 | N#CCc1cccc(-c2cccc(-n3nnc(C(=O)Nc4ccncc4)c3C3CC3)c2)c1 [Compound 7-269]
24 | 5.52 to 6.00 | COc1cccc(-c2cccc(-n3nnc(C(=O)Nc4ccncc4)c3C3CC3)c2)c1 [Compound 7-292]

Row | pIC50 | Compound
25 | 5.52 to 6.00 | O=C(Nc1ccncc1)c1nnn(-c2ccc(-c3cccnc3)cc2)c1C1CC1 [Compound 7-179]
26 | 5.52 to 6.00 | Cn1ncc(C#N)c1-c1ccc(-n2nnc(C(=O)Nc3ccncc3)c2C2CC2)cc1 [Compound 7-188]
27 | 5.52 to 6.00 | CCn1cc(CNC(=O)c2nnn(-c3ccc(-c4ccc(C(N)=O)cc4)cc3)c2C2CC2)cn1 [Compound 17-8]
28 | < 5.52 | Cn1cc(NC(=O)c2nnn(-c3ccc(-c4ccccc4)cc3)c2C2CC2)cn1 [Compound 14-72]
29 | 6.30 to 7.00 | Cc1cc(NC(=O)c2nnn(C3CC=C(c4c(C)nn(C)c4C)CC3)c2C2CC2)ccn1 (centres unmarked) [Compound 12-1, 5-cyclopropyl-N-(2-methylpyridin-4-yl)-1-(4-(1,3,5-trimethyl-1H-pyrazol-4-yl)cyclohex-3-en-1-yl)-1H-1,2,3-triazole-4-carboxamide]
30 | 6.30 to 7.00 | O=C(Nc1ccncc1)c1nnn(-c2ccc(-c3cnn(Cc4cccs4)c3)cc2)c1C1CC1 [Compound 7-29]
31 | 5.52 to 6.00 | COCc1cccc(-c2ccc(-n3nnc(C(=O)Nc4ccncc4)c3C3CC3)cc2)c1 [Compound 7-167]
32 | > 7.00 | CCc1cc(NC(=O)c2nnn(-c3ccc(-c4c(C)nn(-c5ccccc5)c4C)cc3)c2C2CC2)ccn1 [Compound 9-3]
33 | 6.30 to 7.00 | COc1ccc(-c2ccc(-n3nnc(C(=O)Nc4ccncc4)c3C3CC3)cc2)c(C)c1 [Compound 7-34]
34 | 6.00 to 6.30 | CC(O)c1cccc(-c2ccc(-n3nnc(C(=O)Nc4ccncc4)c3C3CC3)cc2)c1 (centres unmarked) [Compound 7-117]
35 | 6.30 to 7.00 | CCn1nccc1-c1ccc(-n2nnc(C(=O)Nc3ccncc3)c2C2CC2)cc1 [Compound 7-92]
36 | 6.30 to 7.00 | Cc1n[nH]c2ncnc(NC(=O)c3nnn(C4CC=C(c5ccc(C#N)cc5)CC4)c3C3CC3)c12 (centres unmarked) [Compound 12-2]
37 | < 5.52 | C[C@H](NC(=O)c1nnn(-c2ccc(-c3ccccc3)cc2)c1C1CC1)c1ccccc1 [Compound 14-86]
38 | 6.30 to 7.00 | N#Cc1ccc(-c2ccc(-n3nnc(C(=O)Nc4ccnc(F)c4)c3C3CC3)cc2)cc1F [Compound 9-36]
39 | 6.30 to 7.00 | CC(C)c1cccc(-c2ccc(-n3nnc(C(=O)Nc4ccncc4)c3C3CC3)cc2)c1 [Compound 7-37]
40 | 6.00 to 6.30 | Cc1ccc(-n2nnc(C(=O)Nc3cc(C)nc(C)c3)c2C2CC2)cc1 [Compound 1-6]
41 | < 5.52 | Cc1ccc(-n2nnc(C(=O)Nc3ccncc3)c2C2CC2)cc1F [Compound 2-13]
42 | > 7.00 | O=C(Nc1ccncc1)c1nnn(-c2ccc(-c3cnn(Cc4ccccc4)c3)cc2)c1C1CC1 [Compound 7-20]
43 | 5.52 to 6.00 | O=C(Nc1c(F)cccc1F)c1nnn(-c2ccc(-c3ccccc3)cc2)c1C1CC1 [Compound 14-54]
44 | > 7.00 | Cc1cc(NC(=O)c2nnn(-c3ccc(-c4c(C)nn5cccnc45)cc3)c2C2CC2)ccn1 [Compound 10-3]
45 | 6.30 to 7.00 | Cc1cc(NC(=O)c2nnn(-c3ccc(-c4ccc(C#N)cc4)cc3OC(F)(F)F)c2C2CC2)ccn1 [Compound 7-53]
46 | 6.30 to 7.00 | O=C(Nc1ccncc1)c1nnn(-c2ccc(-c3n[nH]c4c3CCCC4)cc2)c1C1CC1 [Compound 7-94]
47 | 5.52 to 6.00 | Cc1cc(NC(=O)c2nnn(C3CC=C(c4ccc(CC#N)cc4)CC3)c2C2CC2)ccn1 (centres unmarked) [Compound 12-7]
48 | 5.52 to 6.00 | CCn1cc(CNC(=O)c2nnn(-c3ccc(-c4ccc(F)cc4)cc3)c2C2CC2)cn1 [Compound 17-7]

Row | pIC50 | Compound
49 | 5.52 to 6.00 | CC(NC(=O)c1nnn(-c2ccc(-c3ccccc3)cc2)c1C1CC1)c1cnn(C(C)(C)C)c1 (centres unmarked) [Compound 14-43]
50 | 6.30 to 7.00 | Cc1ccc(-n2nnc(C(=O)Nc3ccnc(C)c3)c2C2CC2)c(Cl)c1 [Compound 4-2, 1-(2-chloro-4-methylphenyl)-5-cyclopropyl-N-(2-methylpyridin-4-yl)-1H-1,2,3-triazole-4-carboxamide]
51 | 6.00 to 6.30 | CC(C)c1c(C(=O)Nc2ccncc2)nnn1-c1ccc(-c2cnn(C)c2)cc1 [Compound 17-27]
52 | 5.52 to 6.00 | N#Cc1ccc(-c2ccc(-n3nnc(C(=O)NC4(c5cncc(F)c5)CC4)c3C3CC3)cc2)cc1 [Compound 18-18]
53 | 6.30 to 7.00 | Cc1ccc(CNC(=O)c2nnn(-c3ccc(-c4c(C)nn(C)c4F)cc3)c2C2CC2)cn1 [Compound 8-3]
54 | 6.30 to 7.00 | Cn1nc(-c2ccccc2)cc1-c1ccc(-n2nnc(C(=O)Nc3ccncc3)c2C2CC2)cc1 [Compound 7-68]
55 | < 5.52 | Cc1ccc(CNC(=O)c2nnn(-c3cccc(-c4cnn(C5CC5)c4)c3)c2C2CC2)cn1 [Compound 7-333]
56 | 5.52 to 6.00 | O=C(Nc1ccncc1)c1nnn(-c2ccc(-c3ccc(C4CCCC4)cc3)cc2)c1C1CC1 [Compound 7-202]
57 | 5.52 to 6.00 | CCc1cc(C)ccc1-n1nnc(C(=O)Nc2ccncc2)c1C1CC1 [Compound 5-6]
58 | > 7.00 | Cc1cc(NC(=O)c2nnn(-c3ccc(-c4c(C)nn(-c5ccccc5)c4C)cc3)c2C2CC2)ccn1 [Compound 10-1, 5-cyclopropyl-1-(4-(3,5-dimethyl-1-phenyl-1H-pyrazol-4-yl)phenyl)-N-(2-methylpyridin-4-yl)-1H-1,2,3-triazole-4-carboxamide]
59 | < 5.52 | O=C(NCC1CCCO1)c1nnn(-c2ccc(-c3ccccc3)cc2)c1C1CC1 (centres unmarked) [Compound 14-7]
60 | 6.00 to 6.30 | Cc1cc(-c2ccccc2)ccc1-n1nnc(C(=O)Nc2ccncc2)c1C1CC1 [Compound 7-257]
61 | < 5.52 | Cc1cccc(-n2nnc(C(=O)Nc3ccncc3)c2C2CC2)c1 [Compound 2-14]
62 | < 5.52 | Cc1[nH]ncc1CNC(=O)c1nnn(-c2ccc(-c3ccccc3)cc2)c1C1CC1 [Compound 14-5]
63 | 5.52 to 6.00 | Cc1ccc(-n2nnc(C(=O)Nc3ccncc3)c2C2CC2)c(Cl)c1 [Compound 2-7]
64 | 6.30 to 7.00 | Cc1ccc(C2(NC(=O)c3nnn(-c4ccc(-c5ccc(C#N)cc5C)cc4)c3C3CC3)CC2)cn1 [Compound 9-22]
65 | 5.52 to 6.00 | Cc1nn(C2CCC2)c(C)c1-c1cccc(-n2nnc(C(=O)Nc3ccncc3)c2C2CC2)c1 [Compound 7-290]
66 | > 7.00 | Cc1cc(NC(=O)c2nnn(-c3ccc(-c4c(C)nn(CC(F)(F)F)c4C)cc3F)c2C2CC2)ccn1 [Compound 7-222]
67 | 6.00 to 6.30 | CS(=O)(=O)Nc1ccc(NC(=O)c2nnn(-c3ccc(-c4ccccc4)cc3)c2C2CC2)cc1 [Compound 14-19]
68 | 5.52 to 6.00 | COc1cc(-n2nnc(C(=O)Nc3ccncc3)c2C2CC2)ccc1C [Compound 2-6]
69 | 6.00 to 6.30 | O=C(Nc1ccncc1)c1nnn(-c2ccc(-c3ccnn3-c3ccccc3)cc2)c1C1CC1 [Compound 7-156]
70 | 5.52 to 6.00 | COc1ccc(C2(NC(=O)c3nnn(-c4ccc(-c5ccc(C(N)=O)cc5)cc4)c3C3CC3)CC2)cn1 [Compound 18-7]
71 | 5.52 to 6.00 | O=C(Nc1ccncc1)c1nnn(-c2ccc(O)cc2)c1C1CC1 [Compound 4-5]
